Experimental data published in ChEMBL document CHEMBL1201862, “PubChem BioAssay data set” (2004).
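Cultured in 96-well plates, cells were exposed to test compound for 48 hours across five concentrations. GI50: concentration for 50% inhibition of growth.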 The source made the active and inactive calls. No stated cut-off is given here; in the data, active = GI50 up to about 1.1 µM and inactive = higher.

Legend:
Test in all cases: NCI anticancer screen, dose series, 48 h
CAKI-1 = test system: CAKI-1
HCC 2998 = test system: HCC 2998
HCT-116 = test system: HCT-116
HCT-15 = test system: HCT-15
HOP-62 = test system: HOP-62
HOP-92 = test system: HOP-92
KM12 = test system: KM12
MOLT-4 = test system: MOLT-4
NCI-H226 = test system: NCI-H226
NCI-H522 = test system: NCI-H522
OVCAR-3 = test system: OVCAR-3
RXF 393 = test system: RXF 393
SK-MEL-28 = test system: SK-MEL-28
SK-MEL-5 = test system: SK-MEL-5
SN12C = test system: SN12C
SNB-19 = test system: SNB-19
SNB-78 = test system: SNB-78
SW-620 = test system: SW-620

Compound	GI50 (CAKI-1)	GI50 (HCC 2998)	GI50 (HCT-116)	GI50 (HCT-15)	GI50 (HOP-62)	GI50 (HOP-92)	GI50 (KM12)	GI50 (MOLT-4)	GI50 (NCI-H226)	GI50 (NCI-H522)	GI50 (OVCAR-3)	GI50 (RXF 393)	GI50 (SK-MEL-28)	GI50 (SK-MEL-5)	GI50 (SN12C)	GI50 (SNB-19)	GI50 (SNB-78)	GI50 (SW-620)
Brc1cccc(/C=N/C23CC4CC(CC(C4)C2)C3)c1	> 100 µM (inactive)	> 100 µM (inactive)	> 100 µM (inactive)	> 100 µM	> 100 µM (inactive)	> 100 µM (inactive)	> 100 µM (inactive)	> 100 µM (inactive)	> 100 µM (inactive)	> 100 µM (inactive)	> 100 µM (inactive)	> 100 µM (inactive)	> 100 µM (inactive)	> 100 µM (inactive)	> 100 µM (inactive)	> 100 µM (inactive)	> 100 µM (inactive)	> 100 µM (inactive)
O=C1Nc2ccccc2N/C1=C\C(=O)c1ccccc1O	> 100 µM (inactive)	> 100 µM (inactive)	> 100 µM (inactive)	> 100 µM	> 100 µM (inactive)	> 100 µM (inactive)	> 100 µM (inactive)	> 100 µM (inactive)	> 100 µM (inactive)	> 100 µM (inactive)	> 100 µM (inactive)	> 100 µM (inactive)	> 100 µM (inactive)	> 100 µM (inactive)	> 100 µM (inactive)	> 100 µM (inactive)	> 100 µM (inactive)	> 100 µM (inactive)
O=c1c2cccc3cccc(c4oc5c6cccc7cccc(c(=O)c5c14)c76)c32	15.8 µM (inactive)	27.2 µM (inactive)	2.25 µM (inactive)	11.4 µM	> 100 µM (inactive)	8.22 µM (inactive)	13.8 µM (inactive)	12.5 µM (inactive)	17 µM (inactive)	5.4 µM (inactive)	12 µM (inactive)	11.2 µM (inactive)	13.3 µM (inactive)	15.2 µM (inactive)	13.8 µM (inactive)	11.6 µM (inactive)	13.7 µM (inactive)	11.8 µM (inactive)
CCC(=C(c1ccc(OCc2ccccc2)cc1)c1ccc(OCc2ccccc2)cc1)c1ccc(OC)cc1	> 100 µM (inactive)	> 100 µM (inactive)	> 100 µM (inactive)	> 100 µM	> 100 µM (inactive)	> 100 µM (inactive)	> 100 µM (inactive)	> 100 µM (inactive)	> 100 µM (inactive)	> 100 µM (inactive)	> 100 µM (inactive)	> 100 µM (inactive)	> 100 µM (inactive)	> 100 µM (inactive)	> 100 µM (inactive)	> 100 µM (inactive)	> 100 µM (inactive)	> 100 µM (inactive)
COc1ccc(CN[C@H]2CCc3cc(OC)c(OC)c(OC)c3-c3ccc(SC)c(=O)cc32)c(OC)c1OC	0.0452 µM (active)	0.0202 µM (active)	0.0229 µM (active)	0.0266 µM	0.0319 µM (active)	0.0681 µM (active)	0.0308 µM (active)	0.0361 µM (active)	0.0237 µM (active)	0.0216 µM (active)	0.0235 µM (active)	0.0181 µM (active)	0.0443 µM (active)	0.0326 µM (active)	0.0381 µM (active)	0.0658 µM (active)	0.0394 µM (active)	0.0416 µM (active)
Cc1c(Cl)cccc1NC(=O)C(=O)C1C(=O)CC(C)(C)CC1=O	> 100 µM (inactive)	> 100 µM (inactive)	> 100 µM (inactive)	> 100 µM	> 100 µM (inactive)	> 100 µM (inactive)	> 100 µM (inactive)	> 100 µM (inactive)	> 100 µM (inactive)	> 100 µM (inactive)	> 100 µM (inactive)	> 100 µM (inactive)	> 100 µM (inactive)	> 100 µM (inactive)	> 100 µM (inactive)	> 100 µM (inactive)	> 100 µM (inactive)	> 100 µM (inactive)
